Several values for one entry are separate records, joined by “and”; a condition that tells them apart may be missing. Equal values may be shown once.
Tests used:
Type in all cases: cell-based
[1] = tested on: Bacteria of the genera Bacillus, Flavobacterium, and Pseudomonas; test: Bioreactor bacterial adhesion test, quantitative inhibition of bacterial adhesion (IBA) by crystal violet absorbance at 586 nm; details: 100 ppm, acetone solvent, 168 h incubation at 26-28 C, 50% or greater considered effective
Description: The test method, construction of bioreactors, bacterial growth medium, preparation of bacterial inocula, and biofilm production/chemical testing is the same as outlined in EXAMPLE 3. After 168 h (1 week) of incubation at 26-28 C, the slides were removed from the bioreactors and were positioned vertically to […] using a staining procedure. The slides were briefly flamed in order to fix the cells to the surface, and then transferred for one minute to a container of Gram Crystal Violet (DIFCO Laboratories, Detroit, Mich.). The slides were gently rinsed under running tap water, carefully blotted, and again allowed to air dry overnight The degree of bacterial adhesion was then determined by a quantitative method of evaluation. The pair of glass slides and the pair of stainless steel slides corresponding to each treatment were placed each in Petri plate with 10 mL ethanol (technical) to remove the crystal violet staining the cells attached to the slides. A 1 mL aliquot of the crystal violet ethanol solution obtained in each Petri plate was transferred each to a test tube with 9 mL of deionized sterile water ( 1/10 dilution). The blank for calibration of the optical instrument used for the evaluation was a solution of 1 mL of ethanol in 9 mL of deionized sterile water. The absorbance (ABS) of each solution was determined using a spectrophotometer (Spectronic 21, Bausch and Lomb) at a wavelength of 586 nm. The inhibition of bacterial adhesion (IBA) was calculated: IBA=100 (ABS control−ABS treatment)\ABS control 90 or >% IBA=essentially no bacterial adhesion 89-70% IBA=scant 69-50% IBA=slight 30% IBA=moderate 29-<29% IBA=moderate Compounds which receive 50% IBA or greater were considered effective to prevent the adhesion of bacteria to the submerged slides.

[2] = tested on: E. Aerogenes; test: Minimum inhibitory concentration, 18 hour Basal Salts test; details: for MIC pH8: pH 8; for MIC pH6: pH 6
[3] = tested on: Bacteria of the genera Bacillus, Flavobacterium, and Pseudomonas; test: Bioreactor bacterial adhesion test, visual biofilm scoring of crystal violet stained slides; design: key: 0=essentially none; 1=scant; 2=slight; 3=moderate; 4=heavy; details: Glass slides; 100 ppm; acetone solvent; 3 days; average of four replicate slides; 0-2 considered effective
Excerpt: Test Method: The following method effectively defines the ability of a chemical compound to inhibit bacterial adhesion, or attack the formation of existing attached microorganisms, on various types of surfaces. As an overview, bioreactors were constructed in which approximately 1 in.×3 in. slides (glass or stainless steel) were fixed to the edge of the bioreactor. The lower ends (approx. 2 in.) of the slides dipped into a bacterial growth medium (pH 7) within the bioreactor which contained a known concentration of the test chemical. Following inoculation with known bacterial species, the test solutions were stirred continuously for 3 days. Unless otherwise indicated in the results below, the medium within the bioreactor was turbid by the end of three days. […] A staining procedure was then used on the slides in order to determine the amount of bacteria attached to the surfaces of the slides.
Construction of Bioreactors: The bioreactors comprised a 400 ml glass beaker over which a lid (cover from a standard 9 cm diameter glass petri dish) was placed. With the lid removed, slides of the material of choice were taped at one end with masking tape and suspended inside the bioreactor from the top edge of the beaker. This allows the slides to be submerged within the test medium. Typically, four slides (replicates) were uniformly spaced around the bioreactor. The score presented below are the average of the four replicates. A magnetic stirring bar was placed in the bottom of the unit, the lid positioned, and the bioreactor autoclaved. Two different types of material were used as slides, stainless steel as a metal and glass as a hydrophillic surface.
Bacterial Growth Medium: The liquid medium utilized in the bioreactors was described previously by Delaquis, et al., “Detachment Of Pseudomonas fluorescens From Biofilms On Glass Surfaces In Response To Nutrient Stress”, Microbial Ecology 18:199-210, 1989. The composition of the medium was:
The medium was autoclaved and then allowed to cool. If a sediment formed in the autoclaved medium, the medium was resuspended by shaking before use.
Preparation of Bacterial Inocula: Bacteria of the genera Bacillus, Flavobacterium, and Pseudomonas were isolated from a paper mill slime deposit and maintained in continuous culture. The test organisms were separately streaked onto plate count agar and incubated at 30° C. for 24 hours. With a sterile cotton swab, portions of the colonies were removed and suspended in sterile water. […]
Biofilm Production/Chemical Testing: To four separate bioreactors was added 200 ml of the sterile medium prepared above. Chemicals to be evaluated as biodispersants were first prepared as a stock solution (40 mg/2 ml) using either water or a 9:1 acetone: methanol mixture (ac/MeOH) as a solvent. […]

## CCCCNS(=O)(=O)O [a, butyl sulfamic acid]
[1]; Glass slides
  Score (% IBA) 168 h Incub.: 0 % IBA
[1]; SS (stainless steel) slides
  Score (% IBA) 168 h Incub.: 66 % IBA
[2]
  MIC pH8: >500

## CCCCCNS(=O)(=O)O [b, amyl sulfamic acid]
[1]; Glass slides
  Score (% IBA) 168 h Incub.: 65 % IBA
[1]; SS (stainless steel) slides
  Score (% IBA) 168 h Incub.: 14 % IBA
[2]
  MIC pH8: >500

## CCCCCCCCNS(=O)(=O)O [c, octyl sulfamic acid]
[1]; Glass slides
  Score (% IBA) 168 h Incub.: 41 % IBA
[1]; SS (stainless steel) slides
  Score (% IBA) 168 h Incub.: 54 % IBA
[2]
  MIC pH8: >100

## CCCCCCCCN(CCCCCCCC)S(=O)(=O)O [d, dioctyl sulfamic acid]
[3]
  Score (biofilm score): 3
[2]
  MIC pH8: >100

## CCCCCCCCCCCCNS(=O)(=O)O [e, dodecyl sulfamic acid]
[3]
  Score (biofilm score): 3.8
[1]; Glass slides
  Score (% IBA) 168 h Incub.: 82 % IBA and 72 % IBA
[1]; SS (stainless steel) slides
  Score (% IBA) 168 h Incub.: 78 % IBA and 70 % IBA

## CCCCCCCCCCCCN(CCCCCCCCCCCC)S(=O)(=O)O [f, didodecyl sulfamic acid]
[3]
  Score (biofilm score): 2.00
[1]; Glass slides
  Score (% IBA) 168 h Incub.: 27 % IBA
[1]; SS (stainless steel) slides
  Score (% IBA) 168 h Incub.: 15 % IBA

## CCCCCCCCCCCCCCCCCCNS(=O)(=O)O [g, octadecyl sulfamic acid]
[2]
  MIC pH8: >500

## O=S(=O)(O)N(C1CCCCC1)C1CCCCC1 [h, dicyclohexyl sulfamic acid]
[1]; Glass slides
  Score (% IBA) 168 h Incub.: 44 % IBA
[1]; SS (stainless steel) slides
  Score (% IBA) 168 h Incub.: 57 % IBA
[2]
  MIC pH6: >500
  MIC pH8: >100

## O=S(=O)(O)NN1CCOCC1 [i, morpholino sulfamic acid]
[1]; Glass slides
  Score (% IBA) 168 h Incub.: 47 % IBA
[1]; SS (stainless steel) slides
  Score (% IBA) 168 h Incub.: 39 % IBA
[2]
  MIC pH6: >500
  MIC pH8: >100

## piperidinyl sulfamic acid [j]
[3]
  Score (biofilm score): 2.5
[1]; Glass slides
  Score (% IBA) 168 h Incub.: 40 % IBA
[1]; SS (stainless steel) slides
  Score (% IBA) 168 h Incub.: 68 % IBA
[2]
  MIC pH6: >100
  MIC pH8: >100

— patent US6380182B1, “Methods and compositions controlling biofouling using sulfamic acids” (priority 1997, dated 2002)
